Assays:
[1] = Tissue distribution following oral administration: blood metabolite nucleoside and liver nucleoside triphosphate levels; design: species or system rats; details: rat, in vivo, 5 mg/kg; for Blood Nuc level at 1 hour / Liver NTP level at 1 hour / Blood Nuc level at 5 hours / Liver NTP level at 5 hours: po
Protocol: IV Remdesivir (2 mg/kg), oral Remdesevir (5 mg/kg) and oral test compound (5 mg/kg) were administered to rats. Oral administration was to fasted rats by oral gavage. Plasma concentrations of the metabolite nucleoside in circulation were determined by HPLC-UV, and the liver concentrations of the active triphosphate were measured by LC-MS using standard chromatography methods.
FIG. 4 is a graph showing the ratio of (concentration of corresponding nucleoside in the liver)/(concentration of corresponding nucleoside in the blood) after 1 and 5 hours from the second study.
Table 1 contains the blood and liver levels after 1 and 5 hours for a number of test compounds compared to oral Remdesivir.

[2] = Tissue distribution following inhalation administration: blood and lung metabolite nucleoside and lung triphosphate levels; assay type: in vivo, rats
Protocol: Remdesivir or the indicated test compound was administered at 2 mg/kg to rats by an inhalation route. The lung concentrations of the metabolite nucleoside and its triphosphate were measured by LC-MS using standard chromatography methods.

SMILES: CCOC(=O)c1ccccc1COP1(=O)OC[C@H]2O[C@@](C#N)(c3ccc4c(N)ncnn34)[C@H](O)[C@@H]2O1 (stereo partly drawn) [Compound 101, Ethyl 2-((((4aR,6R,7R,7aS)-6-(4-aminopyrrolo[2,1-f][1,2,4]triazin-7-yl)-6-cyano-7-hydroxy-2-oxidotetrahydro-4H-furo[3,2-d][1,3,2]dioxaphosphinin-2-yl)oxy)methyl)benzoate]
- Blood Nuc level at 1 hour [1]: <1x
- Liver NTP level at 1 hour [1]: ≥2x
- Blood Nuc level at 5 hours [1]: <1x
- Liver NTP level at 5 hours [1]: ≥2x

SMILES: CCOC(=O)c1ccccc1COP1(=O)OC[C@H]2O[C@@](C#N)(c3ccc4c(N)ncnn34)[C@H](OC(C)=O)[C@@H]2O1 (stereo partly drawn) [Compound 105, Ethyl 2-((((4aR,6R,7R,7aR)-7-acetoxy-6-(4-aminopyrrolo[2,1-f][1,2,4]triazin-7-yl)-6-cyano-2-oxidotetrahydro-4H-furo[3,2-d][1,3,2]dioxaphosphinin-2-yl)oxy)methyl)benzoate]
- Lung levels of the metabolite nucleoside, exposure relative to Remdesivir ([2]; rat, in vivo, 2 mg/kg): more than 4 times
- Nucleoside triphosphate levels in the lung ([2]; rat, in vivo, 2 mg/kg): significant lung exposure of the triphosphate
- Liver exposure of nucleoside triphosphate relative to IV or oral Remdesivir [1]: significantly greater liver exposure than either IV or oral Remdesivir
- Blood Nuc level at 1 hour [1]: ≥2x*
- Liver NTP level at 1 hour [1]: ≥2x
- Blood Nuc level at 5 hours [1]: ≥2x
- Liver NTP level at 5 hours [1]: ≥2x

SMILES: CCOC(=O)c1ccccc1COP1(=O)OC[C@H]2O[C@@](C#N)(c3ccc4c(N)ncnn34)[C@H](OC(=O)CC)[C@@H]2O1 (stereo partly drawn) [Compound 106, Ethyl 2-((((4aR,6R,7R,7aR)-6-(4-aminopyrrolo[2,1-f][1,2,4]triazin-7-yl)-6-cyano-2-oxido-7-(propionyloxy)tetrahydro-4H-furo[3,2-d][1,3,2]dioxaphosphinin-2-yl)oxy)methyl)benzoate]
- Blood Nuc level at 1 hour [1]: ≥2x
- Liver NTP level at 1 hour [1]: ≥2x
- Blood Nuc level at 5 hours [1]: ≥2x
- Liver NTP level at 5 hours [1]: ≥2x

SMILES: CCC(CC)COC(=O)[C@H](C)N[P@](=O)(OC[C@H]1O[C@@](C#N)(c2ccc3c(N)ncnn23)[C@H](O)[C@@H]1O)Oc1ccccc1 [Remdesivir, reference compound]
- Nucleoside triphosphate levels in the lung ([2]; rats, 2 mg/kg inhalation route, FIG. 7): below the level of quantitation
